# Test results reported in the supplement of paper PMC10307832.
# Columns and labels:
# Assay in all cases: relative viability (nuclei count vs DMSO), 5 days (fraction); higher = more cells survive
# [1] = compound: Cc1ccc(C(=O)Nc2ccc(CN3CCN(C)CC3)c(C(F)(F)F)c2)cc1C#Cc1cnc2cccnn12 [Ponatinib] + CCNC(=O)c1noc(-c2cc(C(C)C)c(O)cc2O)c1-c1ccc(CN2CCOCC2)cc1 [Luminespib] (partner 0.01 µM)
# Summary of the method: (§1)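 Relative viability equals treated-well nuclei counts divided by vehicle-well nuclei counts. Counts came from 4× images of lung cancer cell lines grown in 1536-well plates for 5 days after pin-tool dosing on the day after seeding. Dosing used one drug alone or a fixed anchor-drug dose plus five library-drug doses (not always all listed) in √10 steps, and values are medians of duplicate plates.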
# [2] = compound: Cc1ccc(C(=O)Nc2ccc(CN3CCN(C)CC3)c(C(F)(F)F)c2)cc1C#Cc1cnc2cccnn12 [Ponatinib] + C[C@@H](Oc1cc(-c2cnn(C3CCNCC3)c2)cnc1N)c1c(Cl)ccc(F)c1Cl [Crizotinib] (partner 1 µM)
# Summary of the method: as §1
# [3] = compound: Cc1ccc(C(=O)Nc2ccc(CN3CCN(C)CC3)c(C(F)(F)F)c2)cc1C#Cc1cnc2cccnn12 [Ponatinib] + Nc1nc2[nH]cc(CCc3ccc(C(=O)N[C@@H](CCC(=O)O)C(=O)O)cc3)c2c(=O)[nH]1 [Pemetrexed] (partner 0.2 µM)
# Summary of the method: as §1
# [4] = compound: Cc1ccc(Nc2nccc(N(C)c3ccc4c(C)n(C)nc4c3)n2)cc1S(N)(=O)=O [Pazopanib] + COc1cccc2cc(-c3nc([C@H]4CC[C@H](C(=O)O)CC4)n4ncnc(N)c34)[nH]c12 [OSI-027] (partner 0.5 µM)
# Summary of the method: as §1
Cell Line,relative viability ([1]; first compound 0.002 µM),relative viability ([1]; first compound 0.006325 µM),relative viability ([1]; first compound 0.06325 µM),relative viability ([1]; first compound 0.2 µM),relative viability ([2]; first compound 0.002 µM),relative viability ([2]; first compound 0.006325 µM),relative viability ([2]; first compound 0.06325 µM),relative viability ([2]; first compound 0.2 µM),relative viability ([3]; first compound 0.002 µM),relative viability ([3]; first compound 0.006325 µM),relative viability ([3]; first compound 0.06325 µM),relative viability ([3]; first compound 0.2 µM),relative viability ([4]; first compound 0.01 µM),relative viability ([4]; first compound 0.03162 µM),relative viability ([4]; first compound 0.1 µM),relative viability ([4]; first compound 0.3162 µM),relative viability ([4]; first compound 1 µM)
201T,1.1,1.07,1.08,0.966,1.03,1.07,1.06,1.02,0.319,0.324,0.346,0.352,0.83,0.575,0.799,0.742,0.747
A549,,,,,0.625,0.743,0.682,0.702,,,,,,,,,
A-427,0.908,0.799,1.08,0.75,0.875,1.02,0.838,0.743,0.928,0.986,0.981,0.908,0.512,0.481,0.462,0.516,0.448
ABC-1,0.558,0.42,0.745,0.239,1.24,1.23,1.08,0.852,,,,,0.367,0.572,,0.668,0.579
BEN,0.259,0.296,0.24,0.576,0.838,0.824,0.804,0.794,0.678,0.718,0.749,0.767,,0.348,0.314,0.287,0.314
CAL-12T,0.37,0.505,0.436,0.447,0.774,0.653,0.756,0.614,1.13,1.14,1.31,1.21,0.473,0.943,0.609,0.591,0.684
COR-L23,0.658,0.618,0.669,0.513,0.525,0.588,0.619,0.568,0.19,0.193,0.189,0.19,0.91,0.838,0.872,0.832,0.913
COR-L 105,0.651,0.931,0.845,0.895,0.706,1.05,0.791,0.703,1.09,1.07,1.25,1.04,0.636,0.665,0.635,0.75,0.857
Calu-6,,,,,0.701,0.73,0.805,0.763,,,,,,,,,
ChaGo-K-1,0.562,0.651,0.571,0.553,1.12,1.16,1.08,0.95,0.264,0.258,0.262,0.246,0.528,0.504,0.541,0.498,0.581
EBC-1,,,,,0.179,0.214,0.208,0.192,,,,,,,,,
EKVX,0.941,0.959,0.954,0.871,0.789,0.995,1.09,1.02,0.382,0.493,0.427,0.374,0.664,0.741,0.642,0.691,0.788
EMC-BAC-2,1.06,1.15,1.28,1.07,0.708,0.661,0.747,0.727,0.436,0.404,0.468,0.395,,0.424,0.394,0.404,0.399
EPLC-272H,0.323,0.255,0.521,0.199,0.787,0.753,0.886,0.811,0.397,0.359,0.388,0.408,,0.253,0.337,0.336,0.277
H3255,0.862,0.887,0.805,0.929,0.861,0.916,0.951,0.727,0.527,0.607,0.614,0.546,0.512,0.535,0.638,0.606,0.752
HARA,0.683,0.948,0.749,0.682,0.972,1.01,0.973,1.02,0.262,0.23,0.246,0.282,0.581,0.583,0.504,0.642,0.6
HCC-15,0.306,0.22,0.661,0.212,0.828,0.843,0.858,0.802,0.223,0.217,0.226,0.224,0.622,0.825,0.7,0.669,0.815
HCC-44,0.96,0.976,1.22,1.01,0.752,0.799,0.908,0.808,0.636,0.653,0.688,0.622,0.405,0.572,0.584,0.68,0.677
HCC-78,,,,,0.291,0.322,0.447,0.312,0.576,0.885,0.865,0.894,0.361,0.423,0.348,0.411,0.371
HCC-366,,,,,0.474,0.506,0.531,0.519,0.128,0.154,0.191,0.201,0.807,0.992,0.823,0.975,0.945
HCC-827,0.476,0.914,0.446,0.589,0.819,0.964,0.924,0.928,0.234,0.304,0.288,0.247,0.775,0.752,0.784,0.801,0.731
HOP-62,0.87,0.946,0.835,0.781,0.876,0.94,0.901,0.917,0.268,0.33,0.276,0.304,0.787,0.869,0.871,0.879,0.727
IA-LM,,,,,0.6,0.737,0.887,0.7,,,,,,,,,

Cell Line,relative viability ([1]; first compound 0.002 µM),relative viability ([1]; first compound 0.006325 µM),relative viability ([1]; first compound 0.06325 µM),relative viability ([1]; first compound 0.2 µM),relative viability ([2]; first compound 0.002 µM),relative viability ([2]; first compound 0.006325 µM),relative viability ([2]; first compound 0.06325 µM),relative viability ([2]; first compound 0.2 µM),relative viability ([3]; first compound 0.002 µM),relative viability ([3]; first compound 0.006325 µM),relative viability ([3]; first compound 0.06325 µM),relative viability ([3]; first compound 0.2 µM),relative viability ([4]; first compound 0.01 µM),relative viability ([4]; first compound 0.03162 µM),relative viability ([4]; first compound 0.1 µM),relative viability ([4]; first compound 0.3162 µM),relative viability ([4]; first compound 1 µM)
LC-2-ad,0.968,0.93,1.17,0.855,0.482,0.417,0.418,0.421,0.274,0.272,0.296,0.263,0.865,1,0.84,0.808,0.99
LCLC-97TM1,0.677,0.704,0.647,0.439,,0.369,,0.413,0.166,0.142,0.167,0.161,0.5,0.601,0.523,0.528,0.513
LCLC-103H,0.928,0.974,0.908,0.733,1.03,1.13,1.17,1.03,0.446,0.5,0.483,0.416,0.495,0.454,0.547,0.482,0.485
LK-2,,0.185,0.181,0.158,0.26,0.217,0.234,0.269,0.281,0.305,0.186,0.247,0.199,0.228,0.185,0.233,0.171
LOU-NH91,0.317,0.318,0.393,0.404,0.709,0.777,0.758,0.731,0.335,0.421,0.463,0.415,0.701,0.753,0.719,0.781,0.728
LU99A,0.288,0.25,0.274,0.242,0.512,0.53,0.564,0.59,0.17,0.173,0.186,0.315,0.29,0.315,0.334,0.349,0.301
LXF-289,0.598,0.661,0.774,0.641,0.769,0.825,0.821,0.792,0.74,0.846,0.982,0.891,0.815,0.774,0.805,0.77,0.843
NCI-H23,,0.22,0.211,0.196,0.471,0.488,0.504,0.558,0.616,0.766,0.819,0.666,0.559,0.617,0.648,0.643,0.637
NCI-H322M,1,1,0.843,0.716,0.913,0.961,0.816,0.66,0.639,0.677,0.655,0.589,0.531,0.646,0.533,0.636,0.607
NCI-H358,0.406,0.418,0.597,0.262,0.536,0.512,0.517,0.502,0.168,0.162,0.189,0.174,0.843,0.999,0.828,,1.03
NCI-H441,0.359,0.354,0.305,0.315,0.576,0.632,0.835,0.607,0.266,0.256,0.297,0.215,0.6,0.597,0.649,0.619,0.454
NCI-H460,0.0243,0.0378,0.0319,0.0324,0.764,0.863,1.02,0.908,0.06,0.062,0.0629,0.0632,0.601,0.912,0.645,0.665,0.725
NCI-H520,0.207,0.209,0.19,0.223,0.682,0.843,0.841,0.581,0.59,0.636,0.556,0.407,0.271,0.268,0.259,0.301,0.262
NCI-H522,1.17,1.3,1.18,1.09,,,,,0.753,1.15,1.15,1.13,0.705,0.662,0.705,0.636,0.775
NCI-H727,0.321,0.444,0.516,0.261,0.853,0.686,0.893,0.765,,,,,0.462,0.561,0.545,0.505,0.574
NCI-H1299,,,,,0.904,0.936,0.974,0.923,,,,,,,,,
NCI-H1395,0.644,0.601,0.829,0.637,,,,,0.755,0.819,0.871,0.624,0.606,0.741,0.605,0.616,0.706
NCI-H1648,,,,,,,,,0.574,0.667,0.63,0.618,0.24,0.219,0.242,0.271,0.235
NCI-H1703,,,,,0.588,0.693,0.254,0.172,,,,,,,,,
NCI-H1793,0.479,0.212,0.147,0.184,,,,,0.792,0.914,0.774,0.671,,0.254,0.274,0.354,0.273
NCI-H2342,0.759,0.701,0.834,0.601,,,,,0.71,0.733,0.726,0.646,0.535,0.665,0.564,0.624,0.524
SW 900,0.179,0.19,0.243,0.204,,,,,0.458,0.495,0.457,0.464,0.478,0.535,0.515,0.588,0.565
